Data on 22 molecules can be found in US10639284B2, “Immunomodulator compounds” (CHEMOCENTRYX, INC., priority 2016, dated 2020).

Structures are written as SMILES. Where only a bound is given, the exact number is not on record here.

human PD-L1 / Human PD-1, sequence (Q9NZQ7 19-239): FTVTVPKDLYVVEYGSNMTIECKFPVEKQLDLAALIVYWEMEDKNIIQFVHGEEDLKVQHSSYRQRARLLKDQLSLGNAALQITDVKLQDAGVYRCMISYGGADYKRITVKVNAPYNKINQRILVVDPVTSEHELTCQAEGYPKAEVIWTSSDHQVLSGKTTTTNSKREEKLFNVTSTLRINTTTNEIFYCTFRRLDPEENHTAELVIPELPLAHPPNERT

This test has as its target human PD-L1 / Human PD-1 (Homo sapiens (Human), UniProt Q9NZQ7). Kind of test: Enzyme-Linked Immunosorbent Assay (ELISA), PD-1/PD-L1 binding. Particulars: Table 3; plate-coated human PD-L1, biotinylated human PD-1; read-out: ELISA IC50. Summed up:
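Human PD-L1 coated at 1 μg/mL overnight at 4° C; samples diluted 1:5 and incubated with human PD-1 and biotin (0.3 μg/mL) for 1 h at 37° C. Bound PD-1 detected with streptavidin-HRP and TMB (20 min, 37° C), acid-stopped, absorbance at 450 nm.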
By IC50 is commonly meant the point on the concentration scale where inhibition reaches its midpoint. For the molecule `COCc1ccccc1-c1cccc2c1CC[C@@H]2Oc1cc(OCc2cncc(C#N)c2)c(CN[C@@H](CO)C(=O)O)cc1Cl` [Example 3.115], the 50% inhibitory concentration (IC50) fell in the range of 500 to 20000 nM. On to `C[C@@H](O)[C@@H](CC(=O)O)NCc1cc(Cl)c(O[C@H]2CCc3c(-c4ccccc4F)cccc32)cc1OCc1cncc(C#N)c1` [Example 3.116], for which the IC50 was in the range of 500 to 20000 nM. Under `N#Cc1cncc(COc2cc(O[C@H]3CCc4c(C5=CCCCC5)cccc43)c(Cl)cc2CN[C@@H](CO)C(=O)O)c1` [Example 3.117] stands below 100 nM; under `N#Cc1cncc(COc2cc(O[C@H]3CCc4c(-c5cccc(O)c5)cccc43)c(Cl)cc2CN[C@@H](CO)C(=O)O)c1` [Example 3.118], below 100 nM. Take `C[C@@](CO)(NCc1cc(Cl)c(O[C@@H]2CCc3c(-c4ccccc4F)cccc32)cc1OCc1cncc(C#N)c1)C(=O)O` [Example 3.119]: the IC50 was below 100 nM. Turning to `N#Cc1cncc(COc2cc(O[C@@H]3CCc4c(-c5ccccc5F)cccc43)c(Cl)cc2CN[C@@H](CO)C(=O)O)c1` [Example 3.120], the IC50 is below 100 nM. Regarding `N#Cc1cncc(COc2cc(O[C@H]3CCc4c(-c5cccc(CO)c5)cccc43)c(Cl)cc2CN[C@@H](CO)C(=O)O)c1` [Example 3.121], the IC50 is 500 to 20000 nM. Under `N#Cc1cncc(COc2cc(O[C@H]3CCc4c(-c5ccc6c(c5)OCO6)cccc43)c(Cl)cc2CN[C@@H](CO)C(=O)O)c1` [Example 3.122] stands below 100 nM; under `N#Cc1cncc(COc2cc(O[C@H]3CCc4c(-c5ccc(CO)cc5)cccc43)c(Cl)cc2CN[C@@H](CO)C(=O)O)c1` [Example 3.123], 500 to 20000 nM. Regarding `COc1cccc(-c2cccc3c2CC[C@@H]3Oc2cc(OCc3cncc(C#N)c3)c(CN3CCC(O)C(CO)C3)cc2Cl)c1Cl` (stereo partly shown) [Example 3.124], the IC50 was 100 to 500 nM. On to `N#Cc1cncc(COc2cc(O[C@H]3CCc4c(-c5ccc6ccccc6c5)cccc43)c(Cl)cc2CN[C@@H](CO)C(=O)O)c1` [Example 3.125], for which the 50% inhibitory concentration (IC50) was 500 to 20000 nM. `N#Cc1cncc(COc2cc(O[C@H]3CCc4c(-c5cccc6ccccc56)cccc43)c(Cl)cc2CN[C@@H](CO)C(=O)O)c1` [Example 3.126]: the IC50 was 100 to 500 nM.

On to `N#Cc1cncc(COc2cc(O[C@H]3CCc4c(-c5ccccc5CO)cccc43)c(Cl)cc2CN[C@@H](CO)C(=O)O)c1` [Example 3.127], for which the IC50 is below 100 nM. For `N#Cc1cncc(COc2cc(O[C@H]3CCc4c(-c5ccccc5F)cccc43)c(Cl)cc2CNCCO)c1` [Example 3.128], the IC50 was below 100 nM. As for `N#Cc1cncc(COc2cc(O[C@H]3CCc4c(-c5ccccc5F)cccc43)c(Cl)cc2CNC(CO)CO)c1` [Example 3.129], the concentration for half-maximal inhibition (IC50) is below 100 nM. The same measure for `N#Cc1cncc(COc2cc(O[C@H]3CCc4c(-c5ccccc5F)cccc43)c(Cl)cc2CNC(CO)(CO)CO)c1` [Example 3.130]: below 100 nM.

As for `N#Cc1cncc(COc2cc(O[C@H]3CCc4c(-c5ccccc5F)cccc43)c(Cl)cc2CN2CC[C@H](C(=O)O)C2)c1` [Example 3.131], the half-inhibitory concentration (IC50) was below 100 nM. Take `N#Cc1cncc(COc2cc(O[C@H]3CCc4c(-c5ccccc5F)cccc43)c(Cl)cc2CN2CC[C@@H](C(=O)O)C2)c1` [Example 3.132]: the half-maximal inhibitory concentration (IC50) was below 100 nM.

For `CCOc1cc(NC2CCc3c(-c4ccccc4F)cccc32)c(Cl)cc1CN[C@@H](CO)C(=O)O` (stereo partly shown) [Example 3.133], the half-inhibitory concentration (IC50) is 100 to 500 nM.

`CC(O)C(NCc1cc(Cl)c(O[C@H]2CCc3c(-c4ccccc4F)cccc32)cc1OCc1cncc(C#N)c1)c1nnn[nH]1` (stereo partly shown) [Example 3.134]: the concentration for half-maximal inhibition (IC50) was below 100 nM. As for `C[C@@H](O)[C@H](NCc1cc(Cl)c(O[C@H]2CCc3c(-c4ccccc4F)cccc32)cc1OCc1cncc(C#N)c1)C(=O)OC(C)(C)C` [Example 3.135], the half-maximal inhibitory concentration (IC50) fell in the range of 500 to 20000 nM.

On to `CC(C)(C)OC(=O)[C@H](CO)NCc1cc(Cl)c(O[C@H]2CCc3c(-c4ccccc4F)cccc32)cc1OCc1cncc(C#N)c1` [Example 3.136], for which the IC50 was in the range of 500 to 20000 nM.
